Measurements as given in US7410975B2, “Small molecule toll-like receptor (TLR) antagonists” (Coley Pharmaceutical Group, Inc., priority 2003, dated 2008).

molecular target: T1, human TLR7 (hTLR7) (Homo sapiens, UniProt Q9NYK1); test: Antagonist screen, hTLR7-NFκB-293 cells, NF-κB-luciferase reporter, with EC50 of R848; type: cell-based; settings: compound at 0.5, 5, 50 μg/ml; EC50 concentration of R848; 16 h; NF-κB-luciferase
T1 construct: expressed in transfected cells
T1 sequence (Q9NYK1 27-1049): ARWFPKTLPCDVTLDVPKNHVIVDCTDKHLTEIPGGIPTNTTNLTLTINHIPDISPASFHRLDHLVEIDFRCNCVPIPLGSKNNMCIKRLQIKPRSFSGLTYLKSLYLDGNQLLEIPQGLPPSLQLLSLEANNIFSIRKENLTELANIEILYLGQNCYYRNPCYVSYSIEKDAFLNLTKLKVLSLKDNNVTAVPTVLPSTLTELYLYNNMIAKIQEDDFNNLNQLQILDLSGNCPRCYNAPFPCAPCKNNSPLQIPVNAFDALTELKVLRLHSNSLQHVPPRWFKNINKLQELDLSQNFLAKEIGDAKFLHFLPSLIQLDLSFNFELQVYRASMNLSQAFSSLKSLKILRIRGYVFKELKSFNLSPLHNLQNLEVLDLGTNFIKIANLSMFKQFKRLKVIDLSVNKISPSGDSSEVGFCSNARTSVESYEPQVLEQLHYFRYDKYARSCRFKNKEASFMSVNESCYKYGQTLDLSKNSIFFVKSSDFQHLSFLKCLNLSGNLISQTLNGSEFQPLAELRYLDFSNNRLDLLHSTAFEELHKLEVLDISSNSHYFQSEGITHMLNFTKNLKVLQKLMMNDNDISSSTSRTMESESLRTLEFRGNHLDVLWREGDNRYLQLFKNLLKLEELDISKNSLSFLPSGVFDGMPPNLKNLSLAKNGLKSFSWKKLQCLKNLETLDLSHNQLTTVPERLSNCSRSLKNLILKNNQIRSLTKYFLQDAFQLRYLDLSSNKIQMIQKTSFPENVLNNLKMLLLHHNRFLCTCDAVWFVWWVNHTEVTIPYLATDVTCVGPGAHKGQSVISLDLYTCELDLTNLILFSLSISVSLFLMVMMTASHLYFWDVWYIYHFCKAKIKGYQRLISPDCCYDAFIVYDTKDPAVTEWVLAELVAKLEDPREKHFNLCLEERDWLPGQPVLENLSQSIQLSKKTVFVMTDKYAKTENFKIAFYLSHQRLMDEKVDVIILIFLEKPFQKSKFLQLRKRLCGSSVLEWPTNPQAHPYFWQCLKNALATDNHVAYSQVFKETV
Procedure: The method is described in greater detail as follows. The cells for each individual cell clone (hTLR3-NFκB-293, hTLR7-NFκB-293, hTLR8-NFκB-293 and hTLR9-NFκB-293) were counted and seeded one day before the stimulation at 1.5×10^4 cells per well in 96-well cell culture plates. To become adherent the cells were incubated after seeding overnight at 37° C. in 5% CO2 humidified air.
The screen for each compound was performed at the same time for all of the receptors TLR3, TLR7, TLR8 and TLR9. Up to fifteen test compounds, each assayed in duplicate at each of three different final concentrations (0.5 μg/ml, 5 μg/ml, and 50 μg/ml), were used for 16 h cell stimulation on a single multiwell culture plate. A 4× final concentration master plate was created to prepare the different test compounds before they were added to the cells.
Controls were added as duplicates individually for each cell clone on the cell culture plate. Positive controls were used as follows (final concentrations): 50 μg/ml poly(I:C) for hTLR3-NFκB-293; 8 μM resiquimod (R848) for hTLR7-NFκB-293; 30 μM R848 for hTLR8-NFκB-293; and 2.5 μM CpG-ODN 2006 for hTLR9-NFκB-293. Media alone was used as negative control. After addition of controls and small molecules, the cell clones were additionally stimulated with the EC50 concentration of the appropriate receptor-specific ligand.
The mean value of wells H2 and H5 (each with cells and EC50 concentration of the appropriate receptor-specific ligand) divided by the mean of wells H3 and H6 (each with cells alone) yielded the baseline response (i.e., fold induction of luciferase activity) to EC50 concentration of the appropriate receptor-specific ligand.
After 16 h stimulation the supernatant was removed and the cells treated with lysis buffer and stored at −80° C. before measuring.
For each screen result a graphical documentation was performed.
The baseline result (measured with addition of the EC50 concentration of the receptor-specific ligand) for each cell culture plate was measured as described above. Antagonistic effects were measured by down regulation compared to the baseline. Antagonists were scored as follows: • 13: compounds for which there was clear down regulation at 0.5 μg/ml, 5 μg/ml, and 50 μg/ml; • 12: compounds for which there was clear down regulation at 5 μg/ml and 50 μg/ml; • 11: compounds for which there was clear down regulation only at 50 μg/ml; • —: compounds for which there was no clear down regulation even at 50 μg/ml. Agonists
Results were expressed as fold induction over baseline luciferase activity measured in the absence of R848. […] Additional screening was performed in like manner using additional small molecules selected from another library or specifically prepared for this purpose. Scoring is reported as above but as applied to TLR7.

SMILES	hTLR7 (inhibitory effect, antagonist score)
CC1NCCc2c1[nH]c1ccccc21.Cl (racemic) [compound 619, Eleagnine hydrochloride (R,S)]	— (compounds for which there was no clear down regulation even at 50 μg/ml)
O=C1c2c(O)cccc2Cc2cccc(O)c21 [compound 43, Anthralin]	— (compounds for which there was no clear down regulation even at 50 μg/ml)
CN(C)CCCN1c2ccccc2Sc2ccc(C(F)(F)F)cc21.Cl [compound 53, Triflupromazinehydrochloride]	11 (compounds for which there was clear down regulation only at 50 μg/ml)
CN(C)CCCN1c2ccccc2Sc2ccc(Cl)cc21.Cl [compound 64, Chlorpromazinehydrochloride]	11 (compounds for which there was clear down regulation only at 50 μg/ml)
CN(C)CCC=C1c2ccccc2CCc2ccccc21.Cl [compound 74, Amitryptilinehydrochloride]	11 (compounds for which there was clear down regulation only at 50 μg/ml)
OC(c1ccccc1)(c1ccccc1)C1CCNCC1 [compound 93, Azacyclonol]	— (compounds for which there was no clear down regulation even at 50 μg/ml)
CN1Cc2c(N)cccc2C(c2ccccc2)C1.O=C(O)/C=C\C(=O)O (centres unmarked) [compound 108, Nomifensine maleate]	— (compounds for which there was no clear down regulation even at 50 μg/ml)
C[C@]12N[C@H](Cc3ccccc31)c1ccccc12.O=C(O)/C=C\C(=O)O [compound 109, Dizocilpine maleate]	— (compounds for which there was no clear down regulation even at 50 μg/ml)
OCCN1CCN(CCCN2c3ccccc3Sc3ccc(Cl)cc32)CC1 [compound 125, Perphenazine]	— (compounds for which there was no clear down regulation even at 50 μg/ml)
CN1CCN(CCCN2c3ccccc3Sc3ccc(S(=O)(=O)N(C)C)cc32)CC1.CS(=O)(=O)O.CS(=O)(=O)O [compound 149, Thioproperasinedimesylate]	— (compounds for which there was no clear down regulation even at 50 μg/ml)
Clc1ccccc1C(c1ccccc1)(c1ccccc1)n1ccnc1 [compound 267, Clotrimazole]	12 (compounds for which there was clear down regulation at 5 μg/ml and 50 μg/ml)
CC(NCCC(c1ccccc1)c1ccccc1)c1ccccc1.Cl (centres unmarked) [compound 270, Fendiline hydrochloride]	11 (compounds for which there was clear down regulation only at 50 μg/ml)
CN1CCC(=C2c3ccccc3Sc3ccccc32)CC1.O=C(O)/C=C\C(=O)O [compound 294, Pimethixene maleate]	11 (compounds for which there was clear down regulation only at 50 μg/ml)
O=c1[nH]c2ccccc2n1C1CCN(CCCC(c2ccc(F)cc2)c2ccc(F)cc2)CC1 [compound 308, Pimozide]	11 (compounds for which there was clear down regulation only at 50 μg/ml)
Cl.Cl.OCCN1CCN(CC/C=C2/c3ccccc3Sc3ccc(C(F)(F)F)cc32)CC1 [compound 340, Flupentixoldihydrochloride cis-(Z)]	11 (compounds for which there was clear down regulation only at 50 μg/ml)
CNCCCN1c2ccccc2CCc2ccccc21.Cl [compound 343, Desipraminehydrochloride]	12 (compounds for which there was clear down regulation at 5 μg/ml and 50 μg/ml)
CN(C)CC/C=C1/c2ccccc2Sc2ccc(Cl)cc21.Cl [compound 348, Chlorprothixenehydrochloride]	11 (compounds for which there was clear down regulation only at 50 μg/ml)
Cc1cccc(C)c1NC(=O)CN1CCN(CCCC(c2ccc(F)cc2)c2ccc(F)cc2)CC1 [compound 381, Lidoflazine]	11 (compounds for which there was clear down regulation only at 50 μg/ml)
Cl.Cl.Fc1ccc(C(OCCN2CCN(CCCc3ccccc3)CC2)c2ccc(F)cc2)cc1 [compound 386, GBR 12909hydrochloride]	11 (compounds for which there was clear down regulation only at 50 μg/ml)
Nc1cccc2c1C(=O)c1cccc(N)c1C2=O [compound 413, Anthraquinone,1,5-diamino]	— (compounds for which there was no clear down regulation even at 50 μg/ml)
CN1CCC2C(C1)c1ccccc1N2Cc1ccccc1 (centres unmarked) [compound 455, Mebhydroline 1,5 naphtalenedisulfonate]	— (compounds for which there was no clear down regulation even at 50 μg/ml)
Cc1cccc(CN2CCN(C(c3ccccc3)c3ccc(Cl)cc3)CC2)c1.Cl.Cl (centres unmarked) [compound 457, Meclozinedihydrochioride]	— (compounds for which there was no clear down regulation even at 50 μg/ml)
c1ccc2c(c1)[nH]c1cnccc12 [compound 470, norharman]	11 (compounds for which there was clear down regulation only at 50 μg/ml)
CN(C)CC/C=C1/c2ccccc2CSc2ccccc21.Cl [compound 488, Dosulepin hydrochloride]	— (compounds for which there was no clear down regulation even at 50 μg/ml)
CN1CCN(C(c2ccccc2)c2ccccc2)CC1.Cl [compound 510, Cyclizine hydrochloride]	— (compounds for which there was no clear down regulation even at 50 μg/ml)
CN1CCCCC1CCN1c2ccccc2Sc2ccc([S+](C)[O-])cc21.O=S(=O)(O)c1ccccc1 (centres unmarked) [compound 529, Mesoridazine besylate]	— (compounds for which there was no clear down regulation even at 50 μg/ml)
CCOC(=O)Oc1c(OC)cc(C(=O)O[C@@H]2C[C@@H]3CN4CCc5c([nH]c6cc(OC)ccc56)[C@H]4C[C@@H]3[C@H](C(=O)OC)[C@H]2OC)cc1OC [compound 564, Syrosingopine]	11 (compounds for which there was clear down regulation only at 50 μg/ml)
COC(=O)[C@H]1[C@H]2C[C@@H]3c4[nH]c5cc(OC)ccc5c4CCN3C[C@H]2C[C@@H](OC(=O)/C=C/c2cc(OC)c(OC)c(OC)c2)[C@@H]1OC [compound 568, Rescinnamin]	— (compounds for which there was no clear down regulation even at 50 μg/ml)
CC(=O)c1ccc2c(c1)N(CCCN(C)C)c1ccccc1S2.O=C(O)/C=C\C(=O)O [compound 576, Acetopromazinemaleate salt]	— (compounds for which there was no clear down regulation even at 50 μg/ml)
